Experimental data: PMC5735376, “Dual Level Statistical Investigation of Equilibrium Solubility in Simulated Fasted and Fed Intestinal Fluid” (Molecular Pharmaceutics, 2017)
Read-outs that look alike come from different tables or passages of the source.

How the values were obtained:
[1] = Equilibrium solubility in simulated intestinal fluid, dual level DoE, combined fasted and fed arm; assay type: physicochemical; settings: for significance of sodium oleate for solubility: Figure 4, significance ±2, positive solubility impact; for significant two way factor interactions on solubility: eight two way interactions, Figure 4
Excerpt: (§1) For each media parameter (bile salt, lecithin, sodium oleate, monoglyceride, cholesterol, pH and BS: PL ratio) lower and upper limit concentration values for fasted and fed states were defined, Table 1. Using Minitab 17.2.1 and a custom experimental design, a 1/16 of the full factorial DoE with the seven factors and two levels (lower and upper limits) was constructed (8 experiments around the upper and lower levels plus two center points) separately for the fasted and the fed states. These two tables were then applied as an input for a factorial custom design of experiment which combined the fasted and fed using all 20 data points to provide an overall analysis. The study therefore consists of three arms, two smaller (10 data point) fasted and fed arms, which are then merged into a larger (20 data point) combined arm.
(§2) When designing and analyzing the DoE, only a factor’s main effects and 2 way interactions have been considered and 3 way interactions or more were not included. For each DoE the magnitude for each factor’s effect on equilibrium solubility was determined by the standardized effect value for all of the individual factors and the significant 2-way interactions. This value was used to articulate whether these factors are increasing or decreasing drug solubility.
(§3) The solution was prepared by the addition of an excess amount (above the estimated solubility) of solid for each compound investigated to a centrifuge tube (15 mL Corning Centristar cap, polypropylene RNase/DNase free, nonpyrogenic) followed by the addition of each component of the simulated intestinal fluid media according to the run order generated by the DoE. After all of the media components were added, pH was adjusted to 5, 6, or 7 according to the run order using 0.1 M HCl or 0.1 M KOH and tubes were capped and placed on an orbital shaker (OS 5 basic Yellowline, IKA, Germany) for 1 h after which the pH was readjusted if required. The 20 different tubes were then shaken in a tube rotator for 24 h at 40 rpm at 37 °C to simulate intestinal fluid conditions. After 24 h, a 1 mL amount was taken from each of the 20 tubes and transferred to a 1.5 mL Eppendorf tube then centrifuged at 15 000 rpm for 5 min. Following centrifugation 0.5 mL of the supernatant solution was transferred to an HPLC vial to analyze drug solubility using HPLC (Table 4).

[2] = Equilibrium solubility in simulated intestinal fluid, dual level DoE, fasted arm; assay type: physicochemical; settings: for significant DoE factors influencing solubility: fasted and fed study arms together (14 possible values per drug), significance ±4; for statistical significance of DoE factor BS:PL on equilibrium solubility / statistical significance of DoE factor bile salt on equilibrium solubility / statistical significance of DoE factor cholesterol on equilibrium solubility / statistical significance of DoE factor lecithin on equilibrium solubility / statistical significance of DoE factor monoglyceride on equilibrium solubility / statistical significance of DoE factor pH on equilibrium solubility / statistical significance of DoE factor sodium oleate on equilibrium solubility: fasted, current study (Figure 3); for direction of monoglyceride effect on solubility (standardized effect): fasted arm, Figure 3
Excerpt: as §1, §2, §3

[3] = parameters: method as in ref 13, Figure 2; settings: fasted, published; Figure 2; cited from earlier work
[4] = parameters: method as in ref 14, Figure 2; settings: fed, published; Figure 2; cited from earlier work
[5] = Statistical comparison of equilibrium solubility data sets (Mann-Whitney test / two-sample t-test); assay type: physicochemical; settings: for statistical comparison of fasted against fed equilibrium solubility: current dual level DoE, where significant, fasted solubility lower than fed; for statistical comparison of dual level fed with published fed equilibrium solubility: current fed arm vs published fed DoE; for statistical comparison of dual level fasted with published fasted equilibrium solubility: current fasted arm vs published fasted DoE
Excerpt: The Kolmogorov normality test was used in Minitab to assess the normality distribution of each data set. A Mann–Whitney test was used to evaluate the median between two data sets (not normally distributed) and the two-sample t-test was used to evaluate the mean of two data sets (normally distributed).

[6] = Equilibrium solubility in simulated intestinal fluid, dual level DoE, fed arm; assay type: physicochemical; settings: for statistical significance of DoE factor BS:PL on equilibrium solubility / statistical significance of DoE factor bile salt on equilibrium solubility / statistical significance of DoE factor cholesterol on equilibrium solubility / statistical significance of DoE factor lecithin on equilibrium solubility / statistical significance of DoE factor monoglyceride on equilibrium solubility / statistical significance of DoE factor pH on equilibrium solubility / statistical significance of DoE factor sodium oleate on equilibrium solubility: fed, current study (Figure 3)
Excerpt: as §1, §2, §3

[7] = combined arm, Figure 4, significance ±2

Row | statistical significance of DoE factor BS:PL on equilibrium solubility [2] | statistical significance of DoE factor bile salt on equilibrium solubility [2] | statistical significance of DoE factor cholesterol on equilibrium solubility [2] | statistical significance of DoE factor lecithin on equilibrium solubility [2] | statistical significance of DoE factor monoglyceride on equilibrium solubility [2] | statistical significance of DoE factor pH on equilibrium solubility [2] | statistical significance of DoE factor sodium oleate on equilibrium solubility [2] | statistical comparison of fasted against fed equilibrium solubility [5] | statistical significance of DoE factor BS:PL on equilibrium solubility [6] | statistical significance of DoE factor bile salt on equilibrium solubility [6] | statistical significance of DoE factor cholesterol on equilibrium solubility [6] | statistical significance of DoE factor lecithin on equilibrium solubility [6] | Compound | statistical significance of DoE factor bile salt on equilibrium solubility [3] | statistical significance of DoE factor lecithin on equilibrium solubility [3] | statistical significance of DoE factor pH on equilibrium solubility [3] | statistical significance of DoE factor sodium oleate on equilibrium solubility [3] | statistical significance of DoE factor bile salt on equilibrium solubility [4] | statistical significance of DoE factor lecithin on equilibrium solubility [4] | statistical significance of DoE factor monoglyceride on equilibrium solubility [4] | statistical significance of DoE factor pH on equilibrium solubility [4] | further results
1 | NS ^e | NS ^e ^g | NS ^e | NS ^e ^g | NS ^e | NS ^e ^g | NS ^e ^g | significant difference | NS ^e | NS ^e ^g | NS ^e | NS ^e | COc1ccccc1OCCNCC(O)COc1cccc2[nH]c3ccccc3c12 (stereo not drawn) [carvedilol] | S ^d ^g | S ^d ^g | S ^d ^g | S ^d ^g | S ^d ^g | NS ^e | S ^d ^g | S ^d ^g | significance of sodium oleate for solubility ([1]; combined arm): significant; significant DoE factors influencing solubility [2]: no significant factors; statistical significance of DoE factor sodium oleate on equilibrium solubility [4]: S ^d ^g; statistical comparison of dual level fed with published fed equilibrium solubility [5]: significantly different; statistical significance of DoE factor monoglyceride on equilibrium solubility [6]: NS ^e ^g; statistical significance of DoE factor pH on equilibrium solubility [6]: NS ^e ^g; statistical significance of DoE factor sodium oleate on equilibrium solubility [6]: NS ^e ^g
2 | NS ^e | NS ^e ^g | NS ^e | S ^d ^g | S ^d | NS ^e ^g | S ^d | no statistically significant difference | NS ^e | NS ^e ^g | NS ^e | NS ^e ^g | C[C@@H](O[C@H]1OCCN(Cc2n[nH]c(=O)[nH]2)[C@H]1c1ccc(F)cc1)c1cc(C(F)(F)F)cc(C(F)(F)F)c1 [aprepitant] | S ^d ^g | NS ^e ^g | S ^d ^g | S ^d | S ^d ^g | S ^d ^g | NS ^e | S ^d ^g | significance of lecithin for solubility [1, 7]: significant; significance of sodium oleate for solubility ([1]; combined arm): significant; direction of monoglyceride effect on solubility (standardized effect) [2]: positively impacts; statistical significance of DoE factor sodium oleate on equilibrium solubility [4]: S ^d ^g; statistical comparison of dual level fasted with published fasted equilibrium solubility [5]: significantly different; statistical comparison of dual level fed with published fed equilibrium solubility [5]: significantly different; statistical significance of DoE factor monoglyceride on equilibrium solubility [6]: NS ^e; statistical significance of DoE factor pH on equilibrium solubility [6]: NS ^e ^g; statistical significance of DoE factor sodium oleate on equilibrium solubility [6]: NS ^e ^g
3 | S ^d | NS ^e | NS ^e | NS ^e | NS ^e | NS ^e ^g | S ^d | no statistically significant difference | NS ^e | NS ^e ^g | NS ^e | NS ^e ^g | CC(C)(Sc1cc(C(C)(C)C)c(O)c(C(C)(C)C)c1)Sc1cc(C(C)(C)C)c(O)c(C(C)(C)C)c1 [probucol] | NS ^e | NS ^e | S ^d ^g | S ^d | S ^d ^g | S ^d ^g | S ^d ^g | S ^d ^g | variability of equilibrium solubility ([1]; across DoE media, fasted or fed arm, Figures 1 and 2): large variability; significant two way factor interactions on solubility ([1]; combined arm): significant interactions; statistical comparison of dual level fasted with published fasted equilibrium solubility [5]: significantly different; statistical significance of DoE factor monoglyceride on equilibrium solubility [6]: NS ^e ^g; statistical significance of DoE factor pH on equilibrium solubility [6]: NS ^e ^g; statistical significance of DoE factor sodium oleate on equilibrium solubility [6]: S ^d ^g
4 | NS ^e | NS ^e ^g | NS ^e | NS ^e | NS ^e | S ^d | NS ^e ^g | no statistically significant difference | NS ^e | NS ^e ^g | NS ^e | NS ^e | COc1ccc2c(c1)c(CC(=O)O)c(C)n2C(=O)c1ccc(Cl)cc1 [indomethacin] | S ^d ^g | NS ^e | S ^d | S ^d ^g | S ^d ^g | NS ^e | NS ^e | S ^d | significance of pH for solubility [1, 7]: significant; significant two way factor interactions on solubility ([1]; combined arm): no significant interactions; statistical significance of DoE factor sodium oleate on equilibrium solubility [4]: S ^d ^g; statistical significance of DoE factor monoglyceride on equilibrium solubility [6]: NS ^e; statistical significance of DoE factor pH on equilibrium solubility [6]: S ^d; statistical significance of DoE factor sodium oleate on equilibrium solubility [6]: NS ^e ^g
5 | NS ^e | NS ^e ^g | NS ^e | S ^d | S ^d | S ^d | S ^d | significant difference | NS ^e | S ^d | NS ^e | S ^d | CCOC(=O)C1=C(C)NC(C)=C(C(=O)OC)C1c1cccc(Cl)c1Cl (stereo not drawn) [felodipine] | S ^d ^g | S ^d | S ^d | S ^d | S ^d | S ^d | NS ^e ^g | S ^d ^g | significance of bile salt for solubility [1, 7]: significant; significance of cholesterol for solubility [1, 7]: significant; significant DoE factors influencing solubility [2]: eight out of a possible 14; direction of monoglyceride effect on solubility (standardized effect) [2]: positive effect; statistical significance of DoE factor sodium oleate on equilibrium solubility [4]: S ^d; statistical comparison of dual level fasted with published fasted equilibrium solubility [5]: significantly different; direction of monoglyceride effect on solubility (standardized effect) ([6]; fed arm, Figure 3): positive effect; statistical significance of DoE factor monoglyceride on equilibrium solubility [6]: S ^d ^g; statistical significance of DoE factor pH on equilibrium solubility [6]: NS ^e ^g; statistical significance of DoE factor sodium oleate on equilibrium solubility [6]: S ^d
